According to patent EP0088462A2, “Anti-inflammatory and rheumatic composition containing organophosphonate and steroid” (THE PROCTER & GAMBLE COMPANY, priority 1982, dated 1983):
Marks after values point to notes of the source that are not given here.

Test system: rat adjuvant arthritis
Assay: Rat adjuvant arthritis (Example I): paw edema, bone changes and systemic parameters after 46 days of daily treatment
Type: in vivo, male Lewis rats
Conditions: for Group Average Fat Free Dry Weight of Bone from Tibias: daily
Excerpt: One hundred and twenty-five (125) male Lewis rats weighing between 160 and 180 grams each were randomly divided into 12 groups of ten rats each, except the vehicle control group which had 15 rats. Each group was placed under a treatment regimen as described in the table below for a 46 day period.
Adjuvant arthritis was induced in groups one through twelve by a single intradermal injection of heat-killed Mycobacterium butyricum in paraffin oil. The drug treatments wen begun on the same day that the adjuvant was administered, and continued on a daily basis through the study. Drug doses were adjusted each week for changes in body weight.
Paw edema was measured weekly by liquid displacement, immersing the hind legs in a liquid reservoir to the anatomical hair line. Bone changes were evaluated radiographically and by chemical analysis at the conclusion of the study. Ectopic calcification was quantitated by use of a point-counting system with grids of one millimeter square.
The diphosphonate treatment solution for use on the animals in group 2, 3, 7-12, was prepared as follows: the disodium salt of dichloromethane diphosphonic acid was dissolved in saline, adjusted to a pH of 7.4 using sodium hydroxide, and sterilized by vacuum filtration (0.2 micron). The concentration of this solution was adjusted to a concentration of 5 mg of C12 MDP (disodium salt) per milliliter of solution.
The prednisolone to be administered was suspended in […]. The concentration of this suspension was adjusted to 0.10 milligram per milliliter so that it could be administered at a dose volume of 0.5 ml/100 gm body weight.
The disodium salt of Cl2MDP was administered by subcutaneous ventral flank injections. The prednisolone was administered by gastric intubation.
At the end of the treatment period, the rats were sacrificed, necropsied, and the effects of the treatment on the rats were measured in the categories listed below.

[1] = single agent versus placebo (saline and methyl cellulose)

Structure (SMILES): O=P(O)(O)C(Cl)(Cl)P(=O)(O)O [Cl2MDP, Dichloromethanediphosphonic acid]
- Group Average Fat Free Dry Weight of Bone from Tibias (Cl2MDP 2 mg/kg subcutaneous, Prednisolone none): 372.48*
- Group Average Fat Free Dry Weight of Bone from Tibias (Cl2MDP 5 mg/kg subcutaneous, Prednisolone none): 382.42*
- inhibiting bone changes associated with arthritic disease [1]: significantly more effective than the placebo
- inhibiting loss of body, weight [1]: significantly more effective than the placebo
- inhibiting paw edema [1]: significantly more effective than the placebo
- inhibiting spleen weight/body weight ratio [1]: significantly more effective than the placebo

Structure (SMILES): C[C@]12C=CC(=O)C=C1CC[C@@H]1[C@@H]2[C@@H](O)C[C@@]2(C)[C@H]1CC[C@]2(O)C(=O)CO [Prednisolone, 11 β, 17, 21-Trihydroxypregna-1,4-diene-3, 20-dione]
- Group Average Fat Free Dry Weight of Bone from Tibias (Cl2MDP none, Prednisolone 0.25 mg/kg by gastric intubation): 308.96
- Group Average Fat Free Dry Weight of Bone from Tibias (Cl2MDP none, Prednisolone 0.50 mg/kg by gastric intubation): 311.56
- Group Average Fat Free Dry Weight of Bone from Tibias (Cl2MDP none, Prednisolone 2.50 mg/kg by gastric intubation): 315.58
- inhibiting pathological caldivication (prednisolone alone): effective
- inhibiting the calcium and phosphorus in bone (prednisolone alone): effective
- inhibiting paw edema [1]: effective
